From article PMC5603512, “Discovery, Semisynthesis, Antiparasitic and Cytotoxic Evaluation of 14-Membered Resorcylic Acid Lactones and Their Derivatives” (Scientific Reports, 2017)
Like-named read-outs stand apart in the source and are kept apart here.

Columns and labels:
[1] = test system: Plasmodium falciparum; experiment: Antiplasmodial assay (PicoGreen growth inhibition in infected human erythrocytes); assay type: cell-based; details: read-out: Plasmodium falciparum IC50
Procedure: Activity against the causative agent of malaria was performed by culturing human erythrocytes and infecting them with P. falciparum, as described by Trager and Jensen[36]. Briefly, the W2 (Chloroquine resistant) and 3D7 (Chloroquine sensitive) strains of P. falciparum were cultured in RPMI 1640 medium (Sigma-Aldrich, USA) supplemented with 10% human serum (from O+ blood) at a hematocrit of 2% erythrocytes (O+) at 37 °C in a gas mixture of 5% CO2, 5% O2, and 90% N2. Parasites were synchronized by a temperature cycling technique as described by Almanza et al.[37]

[2] = test system: Leishmania donovani; experiment: Antileishmanial assay (PicoGreen); assay type: cell-based; details: read-out: Leishmania donovani IC50
Procedure: The anti-leishmania activity was evaluated following the protocol described by Calderon et al.[39], using the fluorescent DNA intercalator PicoGreen (Invitrogen, USA). The species responsible for visceral leishmaniasis, L. donovani, was used for the assays.

[3] = test system: Trypanosoma cruzi; experiment: Antitrypanosomal assay (beta-galactosidase reporter, intracellular amastigotes in Vero cells); assay type: cell-based; details: Tulahuen clone C4, intracellular amastigotes in Vero cells, 120 h; also: key: I: Inactive
Procedure: Briefly, the expression of the reporter gene for beta-galactosidase (β-Gal) in the Tulahuen clone C4 of T. cruzi is assessed by colorimetry at 570 nm, which correlates with the parasite growth. Assays were performed on the intracellular amastigote form of the parasite infecting African green monkey kidney (Vero) cells, incubated for 120 h at 37 °C with 5% CO2.

[4] = Toxicity against Vero cells (MTT); assay type: cell-based, African green monkey; details: African green monkey, MTT, 48 h
Procedure: It should be emphasized that toxicity is a major concern of drug discovery and development. The above active compounds were evaluated for in vitro toxicity against a mammalian kidney cell line (Vero). The selectivity index (SI) was used as the evaluation parameter of drug potential of the test samples by comparing the toxicity on the Vero cell line (CC50) and the selective inhibitory effect on P. falciparum, L. donovani or T. cruzi (IC50) calculated here as CC50/IC50.
Adriamycin was used as a positive control.

[5] = Cytotoxicity SRB assay, HCT-116; details: human
Procedure: (§1) All of the compounds were also evaluated for their cytotoxic properties against six human cancer cell lines (lung carcinoma epithelian (A549), colon carcinoma (HCT-116), pancreatic carcinoma (BXPC-3), breast cancer (MCF-7), cervical epithelium (HeLa), and erythroleukemic (K562)) and a human umbilical vein endothelial cell (HUVEC) line (Table 2).
(§2) The cytotoxicity against HCT-116, BXPC-3, HeLa, MCF-7, A-549, and HUVEC cell lines was evaluated using the SRB method. The cytotoxicity against K562 and Vero cell lines was evaluated using the MTT method. Adriamycin was used as a positive control. All cells were cultivated in T-75 flasks containing 10% Fetal Bovine Serum (FBS), Dulbeco’s Modified Eagle Medium (DMEM) with 2 mM L-glutamine, and 1% penicillin-streptomycin at 37 °C in a humidified atmosphere with 5% CO2. For SRB assay, cells in their log phase of growth were seeded into 96 well micro plates (4 × 10^4 cells per well) and followed by treating with test samples at 10 μM or DMSO. After incubation at 37 °C for 72 h, the cells were fixed with the cold 20% (w/v) TCA for 2 h and stained with Sulforhodamine B (SRB) dye for 0.5 h. The protein-bound dye is dissolved in Tris base solution for OD determination at 540 nm on an ELISA Plate Reader. For MTT assay, cells (5 × 10^3 cells per well) were plated in 96 well micro plates. After cell attachment overnight, new medium containing test compounds or DMSO was added. The plate was incubated for 48 h at 37 °C and incubated with 3-(4,5-dimethylthiazol-2-yl)-2,5-diphenyltetrazolium bromide (MTT) for additional 2–4 hours. The assay plate was then read at 490 nm on an ELISA Plate Reader. The data were obtained from experiments carried out in triplicate.

[6] = Cytotoxicity SRB assay, BXPC-3; details: human
Procedure: as §1, §2

[7] = Cytotoxicity SRB assay, HeLa; details: human
Procedure: as §1, §2

[8] = Cytotoxicity SRB assay, MCF-7; details: human
Procedure: as §1, §2

[9] = Cytotoxicity SRB assay, A-549; details: human
Procedure: as §1, §2

[10] = Cytotoxicity MTT assay, K562; details: human
Procedure: as §1, §2

[11] = Cytotoxicity SRB assay, HUVEC; details: human
Procedure: as §1, §2

[12] = Cytotoxicity against the panel of six human cancer cell lines and HUVEC
Procedure: as §1, §2

[13] = Erythrocyte, in vitro, W2 and 3D7 strains cultured, strain of the values not stated
[14] = Vero cells (mammalian kidney cell line)
[15] = BXPC-3 pancreatic carcinoma cells
[16] = HUVEC (umbilical vein endothelial cells)

SMILES	IC50 [1, 13] [µM]	IC50 ([2]; in vitro) [µM]	Trypanosoma cruzi IC50 [3]	CC50 at 48 h [4, 14] [µM]	IC50 at 72 h ([5]; HCT-116 colon carcinoma cells) [µM]	IC50 at 72 h [6, 15] [µM]	IC50 at 72 h ([7]; HeLa cervical epithelium cells) [µM]	IC50 at 72 h ([8]; MCF-7 breast cancer cells) [µM]	IC50 at 72 h ([9]; A-549 lung carcinoma cells) [µM]	IC50 at 48 h ([10]; K562 erythroleukemic cells) [µM]	IC50 ([1]; 3D7, Erythrocyte) [µM]	IC50 [2] [µM]	CC50 at 48 h [4] [µM]	IC50 at 72 h [5] [µM]	IC50 at 72 h [6] [µM]	IC50 at 72 h [7] [µM]	IC50 at 72 h [8] [µM]	IC50 at 72 h [9] [µM]	IC50 at 48 h [10] [µM]	other results
COc1cc(O)c2c(c1)/C=C/C[C@H](O)[C@@H]1OC(C)(C)O[C@H]1/C=C/C[C@H](C)OC2=O [Compound 1, cochliomycin A]	30.7	> 15.7	I	96	> 10	> 10	> 10	> 10	> 10	> 10	–	–	–	–	–	–	–	–	–	–
COc1cc(O)c2c(c1)/C=C/C[C@H](O)[C@H](O)C(=O)/C=C\C[C@H](C)OC2=O [Compound 7]	11	2.21	–	< 1	1.09	5.07	> 10	> 10	> 10	> 10	–	–	–	–	–	–	–	–	–	IC50 at 72 h [11, 16]: > 10 µM; IC50 [12]: < 10 µM
COc1cc(O)c2c(c1)/C=C/C[C@H](O)[C@H](O)[C@@H](O)/C=C/C[C@H](C)OC2=O [Compound 8, zeaenol]	–	–	I	–	–	–	–	–	–	–	> 30.7	> 15.7	227	> 10	> 10	> 10	> 10	> 10	> 10	IC50 at 72 h [11]: > 10 µM
COc1cc(O)c2c(c1)/C=C/C[C@H](O)[C@H](O)C(=O)CCC[C@H](C)OC2=O [Compound 9]	–	–	I	–	–	–	–	–	–	–	> 30.7	> 15.7	131	> 10	> 10	> 10	> 10	> 10	> 10	–
COc1cc(O)c2c(c1)/C=C/C[C@H](O)[C@H](O)[C@@H](O)CCC[C@H](C)OC2=O [Compound 10]	–	–	I	–	–	–	–	–	–	–	> 30.7	> 15.7	274	> 10	> 10	> 10	> 10	> 10	> 10	–
COc1cc(O)c2c(c1Cl)/C=C/C[C@H](O)[C@H](O)[C@@H](O)/C=C/C[C@H](C)OC2=O [Compound 16]	> 30.7	> 15.7	I	260	> 10	> 10	> 10	> 10	> 10	> 10	–	–	–	–	–	–	–	–	–	–
COc1cc(O)c2c(c1Cl)/C=C/C[C@H](O)[C@@H]1OC(C)(C)O[C@H]1/C=C/C[C@H](C)OC2=O [Compound 17]	> 30.7	> 15.7	I	143	> 10	> 10	> 10	> 10	> 10	> 10	–	–	–	–	–	–	–	–	–	–
COc1cc(O)c2c(c1Cl)/C=C/C[C@H](O)[C@@H]1OC(C)(C)O[C@H]1CCC[C@H](C)OC2=O [Compound 18]	–	–	I	–	–	–	–	–	–	–	> 30.7	> 15.7	102	> 10	> 10	> 10	> 10	> 10	> 10	–
COc1cc2c(c(OC(=O)c3cccs3)c1)C(=O)O[C@@H](C)C/C=C/C(=O)[C@@H](OC(=O)c1cccs1)[C@@H](OC(=O)c1cccs1)C/C=C/2 [Compound 22]	20.1	3.03	–	11.5	–	–	–	–	–	–	–	–	–	–	–	–	–	–	–	IC50 ([3]; Trypanosoma cruzi, read-out: Trypanosoma cruzi IC50): 6.31 µM
COc1cc(O)c2c(c1)/C=C/C[C@H]1OC(C)(C)O[C@@H]1C(=O)/C=C/C[C@H](C)OC2=O [Compound 23]	> 30.7	> 15.7	I	–	–	–	–	–	–	–	–	–	–	3.51	–	6.59	–	9.75	–	IC50 at 72 h [11]: 7.51 µM; IC50 [12]: < 10 µM
COc1cc2c(c(OC(C)=O)c1)C(=O)O[C@@H](C)C/C=C/C(=O)[C@@H](OC(C)=O)[C@H](OC(C)=O)C/C=C/2 [Compound 24]	> 30.7	12.1	–	3.2	> 10	–	> 10	–	> 10	–	–	–	–	–	–	–	–	–	–	IC50 at 72 h [11, 16]: > 10 µM
COc1cc(O)c2c(c1)/C=C/C[C@H]1OC(C)(C)O[C@H]1C(=O)/C=C/C[C@H](C)OC2=O [Compound 25]	> 30.7	> 15.7	I	–	–	–	–	–	–	–	–	–	–	> 10	> 10	> 10	> 10	> 10	> 10	IC50 at 72 h [11]: > 10 µM
COc1cc(O)c2c(c1)/C=C/C[C@H](OC(C)=O)[C@H](OC(C)=O)C(=O)/C=C\C[C@H](C)OC2=O [Compound 27]	> 30.7	3.14	–	< 1	2.83	–	3.85	–	7.3	–	–	–	–	–	–	–	–	–	–	IC50 at 72 h [11, 16]: 5.9 µM; IC50 [12]: < 10 µM
